Active and inactive are the calls of the source. The rule behind the calls is not given here.

For one series, the system named is A2780. Briefly: Antiproliferative activity against human A2780 cells assessed as inhibition of cell proliferation measured after 120 hrs by Cell-titre glo assay. The settings on record: A2780, 120 h. The class given is functional, cell-based.
Series [1] addresses T1, Histone acetyltransferase p300 (Homo sapiens, UniProt Q09472). As to the kind of experiment: Inhibition of p300 (unknown origin) preincubated for 15 mins followed by addition of substrate [3H] Ac-CoA and measured after 60 mins by liquid scintillation counting assay.
The subject of series [2] is OVCAR-3. Briefly: Antiproliferative activity against human OVCAR-3 cells assessed as inhibition of cell proliferation measured after 120 hrs by Cell-titre glo assay. The settings on record: OVCAR-3, 120 h. The class given is functional, cell-based.
The next series concerns the target CREB-binding protein (Homo sapiens, UniProt Q92793). As to the kind of experiment: Inhibition of CBP (unknown origin) preincubated for 15 mins followed by addition of substrate [3H] Ac-CoA and measured after 60 mins by liquid scintillation counting assay.
The nature of series [3]: Stability in human liver microsomes assessed as intrinsic clearance. It counts as ADME, Microsome.
A short description of series [4]: Stability in rat liver microsomes assessed as intrinsic clearance. It counts as ADME, Microsome.
A short description of series [5]: Stability in mouse liver microsomes assessed as intrinsic clearance. The class given is ADME, Microsome.
The target of series [6] is T1, Histone acetyltransferase p300. Briefly: Inhibition of p300 (unknown origin).
The nature of series [7]: AUC(last) in Sprague-Dawley rat at 3 mg/kg, po. The class given is ADME, organism-based. More on the design: time 0 - last, route oral, dose 3 mg/kg. The settings on record: in vivo.
In series [8] the target is Histone acetyltransferase KAT2A (Homo sapiens) (UniProt Q92830). Briefly: Inhibition of GCN5 in human OVCAR-3 cells assessed as reduction of H3K9ac levels at 0.25 to 4 uM after 24 hrs by Western blot assay. The class given is cell-based. The settings on record: dose 0.25-4 µM.
In series [9] the test system is OVCAR-3. Briefly: Antitumour activity against human OVCAR-3 cells xenografted in Balb/c mouse assessed as reduction of tumor volume at 100 mg/kg, ip qd measured every 3 to 4 days for 2 weeks. It counts as functional, organism-based.
Series [10] is described as follows: Cmax in Sprague-Dawley rat at 3 mg/kg, po. The class given is ADME, organism-based. More on the design: route oral, dose 3 mg/kg. The settings on record: in vivo.
In series [11] the target is T1, Histone acetyltransferase p300. Briefly: Inhibition of p300 in human OVCAR-3 cells assessed as reduction of H3K18ac levels measured after 24 hrs by Western blot assay. The settings on record: dose 0.25-4 µM. The class given is cell-based.
A short description of series [12]: Toxicity in Balb/c nude mouse xenografted with human OVCAR-3 cells assessed as body weight loss at 30 mg/kg, ip measured after 24 days. It counts as organism-based. The settings on record: in vivo, 576 h, time 24 day.
A short description of series [13]: Half life in Sprague-Dawley rat at 3 mg/kg, po. It counts as ADME, organism-based. The settings on record: in vivo.
The subject of another series is SK-OV-3. Briefly: Antiproliferative activity against human SK-OV-3 cells assessed as inhibition of cell proliferation measured after 120 hrs by Cell-titre glo assay. It counts as functional, cell-based.
Series [14] addresses T1, Histone acetyltransferase p300. As to the kind of experiment: Inhibition of p300 in human OVCAR-3 cells assessed as reduction of H3K27ac levels measured after 24 hrs by Western blot assay. It counts as cell-based. The settings on record: dose 0.25-4 µM.
Series [15] can be described thus: Toxicity in Balb/c nude mouse xenografted with human OVCAR-3 cells assessed as body weight loss at 20 to 30 mg/kg, ip qd measured every 3 to 4 days for 2 weeks. The settings on record: in vivo, 336 h, dose 20-30 mg/kg. It counts as organism-based.
Series [16] can be described thus: Tmax in Sprague-Dawley rat at 3 mg/kg, po. It counts as ADME, organism-based. The settings on record: in vivo.
In the next series the test system is HEK293. Briefly: Antiproliferative activity against human 293 cells assessed as inhibition of cell proliferation measured after 120 hrs by Cell-titre glo assay. It counts as cell-based. The settings on record: hek293, 120 h.
The subject of series [17] is OVCAR-3. Briefly: Antitumour activity against human OVCAR-3 cells xenografted in Balb/c mouse assessed as reduction of tumor volume at 20 mg/kg, ip qd measured every 3 to 4 days for 2 weeks. It counts as functional, organism-based.
The subject of series [18] is OVCAR-3. As to the kind of experiment: Antitumour activity against human OVCAR-3 cells xenografted in Balb/c mouse assessed as reduction of tumor volume at 30 mg/kg, ip qd measured every 3 to 4 days for 2 weeks (reference value: 2838.39 +/- 1392.47 mm3). It counts as functional.
For series [19], the target named is CREB-binding protein/Histone acetyltransferase p300 (Homo sapiens) (UniProt Q09472+Q92793). Briefly: Inhibition of p300/CBP in human OVCAR-3 cells assessed as reduction of C-myc levels at 0.25 uM measured after 2 days by Western blot assay relative to control. It counts as cell-based. The settings on record: time 2.0 day.
The test system of a further series is TOV21G. Briefly: Antiproliferative activity against human TOV-21G cells assessed as inhibition of cell proliferation measured after 120 hrs by Cell-titre glo assay. It counts as functional, cell-based.

T1 sequence (Q09472 whole entry): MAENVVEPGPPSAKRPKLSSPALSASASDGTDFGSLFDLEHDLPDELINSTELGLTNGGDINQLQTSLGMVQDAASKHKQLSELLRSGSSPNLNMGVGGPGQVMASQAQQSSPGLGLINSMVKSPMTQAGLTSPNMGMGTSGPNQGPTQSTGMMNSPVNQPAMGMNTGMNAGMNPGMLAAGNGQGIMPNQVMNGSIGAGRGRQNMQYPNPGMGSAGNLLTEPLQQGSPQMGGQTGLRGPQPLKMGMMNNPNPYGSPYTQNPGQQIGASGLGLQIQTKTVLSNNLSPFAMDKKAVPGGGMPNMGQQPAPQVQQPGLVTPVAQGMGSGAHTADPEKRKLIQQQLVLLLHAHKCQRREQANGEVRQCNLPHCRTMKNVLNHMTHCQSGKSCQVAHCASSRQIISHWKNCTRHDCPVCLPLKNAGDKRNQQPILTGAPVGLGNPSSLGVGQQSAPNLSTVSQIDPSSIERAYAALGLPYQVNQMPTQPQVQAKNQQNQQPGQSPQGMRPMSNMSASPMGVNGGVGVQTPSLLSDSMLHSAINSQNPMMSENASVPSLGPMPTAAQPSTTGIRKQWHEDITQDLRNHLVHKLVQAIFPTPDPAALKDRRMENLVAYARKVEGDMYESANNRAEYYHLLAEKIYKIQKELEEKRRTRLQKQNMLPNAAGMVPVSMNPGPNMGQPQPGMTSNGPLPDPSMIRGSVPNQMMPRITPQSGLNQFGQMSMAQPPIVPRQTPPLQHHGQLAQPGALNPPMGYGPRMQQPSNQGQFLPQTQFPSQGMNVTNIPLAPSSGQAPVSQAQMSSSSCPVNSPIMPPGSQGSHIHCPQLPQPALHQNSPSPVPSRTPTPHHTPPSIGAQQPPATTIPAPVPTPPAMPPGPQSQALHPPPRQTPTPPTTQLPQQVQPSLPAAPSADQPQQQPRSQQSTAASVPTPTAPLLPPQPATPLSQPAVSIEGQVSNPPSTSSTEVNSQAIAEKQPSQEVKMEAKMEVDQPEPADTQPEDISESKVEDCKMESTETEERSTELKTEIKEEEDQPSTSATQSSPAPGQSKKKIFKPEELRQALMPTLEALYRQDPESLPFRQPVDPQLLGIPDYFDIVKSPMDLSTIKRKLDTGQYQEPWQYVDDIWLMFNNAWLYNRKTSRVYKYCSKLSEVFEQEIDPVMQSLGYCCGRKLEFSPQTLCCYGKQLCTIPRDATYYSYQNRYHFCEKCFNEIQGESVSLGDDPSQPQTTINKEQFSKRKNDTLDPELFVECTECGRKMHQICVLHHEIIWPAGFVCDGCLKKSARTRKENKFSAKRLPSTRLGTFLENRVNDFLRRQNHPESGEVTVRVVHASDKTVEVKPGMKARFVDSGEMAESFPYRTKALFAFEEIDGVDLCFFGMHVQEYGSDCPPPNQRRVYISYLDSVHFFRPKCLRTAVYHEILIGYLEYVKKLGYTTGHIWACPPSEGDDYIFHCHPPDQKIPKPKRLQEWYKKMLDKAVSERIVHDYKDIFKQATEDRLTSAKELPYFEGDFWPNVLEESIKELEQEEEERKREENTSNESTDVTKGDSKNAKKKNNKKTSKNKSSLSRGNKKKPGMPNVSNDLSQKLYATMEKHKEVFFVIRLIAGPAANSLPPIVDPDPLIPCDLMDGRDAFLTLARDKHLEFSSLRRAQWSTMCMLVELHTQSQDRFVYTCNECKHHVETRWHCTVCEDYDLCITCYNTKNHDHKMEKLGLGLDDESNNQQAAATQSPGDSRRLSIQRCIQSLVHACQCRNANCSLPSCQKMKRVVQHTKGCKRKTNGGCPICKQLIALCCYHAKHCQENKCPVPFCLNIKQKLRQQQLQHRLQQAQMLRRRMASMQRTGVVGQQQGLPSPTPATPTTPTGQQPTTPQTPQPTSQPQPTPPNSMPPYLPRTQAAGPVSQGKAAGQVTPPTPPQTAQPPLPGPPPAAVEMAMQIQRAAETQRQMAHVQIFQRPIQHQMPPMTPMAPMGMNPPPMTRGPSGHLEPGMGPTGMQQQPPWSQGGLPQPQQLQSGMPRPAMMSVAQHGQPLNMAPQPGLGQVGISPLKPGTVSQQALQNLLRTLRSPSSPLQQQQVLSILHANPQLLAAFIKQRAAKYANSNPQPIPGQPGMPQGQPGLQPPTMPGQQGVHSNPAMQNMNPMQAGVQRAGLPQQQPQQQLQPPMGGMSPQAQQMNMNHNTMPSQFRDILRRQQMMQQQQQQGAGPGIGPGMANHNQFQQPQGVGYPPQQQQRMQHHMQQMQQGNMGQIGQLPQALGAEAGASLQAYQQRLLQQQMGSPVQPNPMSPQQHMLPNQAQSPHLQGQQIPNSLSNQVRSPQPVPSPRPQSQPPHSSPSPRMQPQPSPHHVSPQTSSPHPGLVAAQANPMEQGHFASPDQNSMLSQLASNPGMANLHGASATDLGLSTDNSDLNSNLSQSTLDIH
CREB-binding protein, sequence (Q92793 whole entry): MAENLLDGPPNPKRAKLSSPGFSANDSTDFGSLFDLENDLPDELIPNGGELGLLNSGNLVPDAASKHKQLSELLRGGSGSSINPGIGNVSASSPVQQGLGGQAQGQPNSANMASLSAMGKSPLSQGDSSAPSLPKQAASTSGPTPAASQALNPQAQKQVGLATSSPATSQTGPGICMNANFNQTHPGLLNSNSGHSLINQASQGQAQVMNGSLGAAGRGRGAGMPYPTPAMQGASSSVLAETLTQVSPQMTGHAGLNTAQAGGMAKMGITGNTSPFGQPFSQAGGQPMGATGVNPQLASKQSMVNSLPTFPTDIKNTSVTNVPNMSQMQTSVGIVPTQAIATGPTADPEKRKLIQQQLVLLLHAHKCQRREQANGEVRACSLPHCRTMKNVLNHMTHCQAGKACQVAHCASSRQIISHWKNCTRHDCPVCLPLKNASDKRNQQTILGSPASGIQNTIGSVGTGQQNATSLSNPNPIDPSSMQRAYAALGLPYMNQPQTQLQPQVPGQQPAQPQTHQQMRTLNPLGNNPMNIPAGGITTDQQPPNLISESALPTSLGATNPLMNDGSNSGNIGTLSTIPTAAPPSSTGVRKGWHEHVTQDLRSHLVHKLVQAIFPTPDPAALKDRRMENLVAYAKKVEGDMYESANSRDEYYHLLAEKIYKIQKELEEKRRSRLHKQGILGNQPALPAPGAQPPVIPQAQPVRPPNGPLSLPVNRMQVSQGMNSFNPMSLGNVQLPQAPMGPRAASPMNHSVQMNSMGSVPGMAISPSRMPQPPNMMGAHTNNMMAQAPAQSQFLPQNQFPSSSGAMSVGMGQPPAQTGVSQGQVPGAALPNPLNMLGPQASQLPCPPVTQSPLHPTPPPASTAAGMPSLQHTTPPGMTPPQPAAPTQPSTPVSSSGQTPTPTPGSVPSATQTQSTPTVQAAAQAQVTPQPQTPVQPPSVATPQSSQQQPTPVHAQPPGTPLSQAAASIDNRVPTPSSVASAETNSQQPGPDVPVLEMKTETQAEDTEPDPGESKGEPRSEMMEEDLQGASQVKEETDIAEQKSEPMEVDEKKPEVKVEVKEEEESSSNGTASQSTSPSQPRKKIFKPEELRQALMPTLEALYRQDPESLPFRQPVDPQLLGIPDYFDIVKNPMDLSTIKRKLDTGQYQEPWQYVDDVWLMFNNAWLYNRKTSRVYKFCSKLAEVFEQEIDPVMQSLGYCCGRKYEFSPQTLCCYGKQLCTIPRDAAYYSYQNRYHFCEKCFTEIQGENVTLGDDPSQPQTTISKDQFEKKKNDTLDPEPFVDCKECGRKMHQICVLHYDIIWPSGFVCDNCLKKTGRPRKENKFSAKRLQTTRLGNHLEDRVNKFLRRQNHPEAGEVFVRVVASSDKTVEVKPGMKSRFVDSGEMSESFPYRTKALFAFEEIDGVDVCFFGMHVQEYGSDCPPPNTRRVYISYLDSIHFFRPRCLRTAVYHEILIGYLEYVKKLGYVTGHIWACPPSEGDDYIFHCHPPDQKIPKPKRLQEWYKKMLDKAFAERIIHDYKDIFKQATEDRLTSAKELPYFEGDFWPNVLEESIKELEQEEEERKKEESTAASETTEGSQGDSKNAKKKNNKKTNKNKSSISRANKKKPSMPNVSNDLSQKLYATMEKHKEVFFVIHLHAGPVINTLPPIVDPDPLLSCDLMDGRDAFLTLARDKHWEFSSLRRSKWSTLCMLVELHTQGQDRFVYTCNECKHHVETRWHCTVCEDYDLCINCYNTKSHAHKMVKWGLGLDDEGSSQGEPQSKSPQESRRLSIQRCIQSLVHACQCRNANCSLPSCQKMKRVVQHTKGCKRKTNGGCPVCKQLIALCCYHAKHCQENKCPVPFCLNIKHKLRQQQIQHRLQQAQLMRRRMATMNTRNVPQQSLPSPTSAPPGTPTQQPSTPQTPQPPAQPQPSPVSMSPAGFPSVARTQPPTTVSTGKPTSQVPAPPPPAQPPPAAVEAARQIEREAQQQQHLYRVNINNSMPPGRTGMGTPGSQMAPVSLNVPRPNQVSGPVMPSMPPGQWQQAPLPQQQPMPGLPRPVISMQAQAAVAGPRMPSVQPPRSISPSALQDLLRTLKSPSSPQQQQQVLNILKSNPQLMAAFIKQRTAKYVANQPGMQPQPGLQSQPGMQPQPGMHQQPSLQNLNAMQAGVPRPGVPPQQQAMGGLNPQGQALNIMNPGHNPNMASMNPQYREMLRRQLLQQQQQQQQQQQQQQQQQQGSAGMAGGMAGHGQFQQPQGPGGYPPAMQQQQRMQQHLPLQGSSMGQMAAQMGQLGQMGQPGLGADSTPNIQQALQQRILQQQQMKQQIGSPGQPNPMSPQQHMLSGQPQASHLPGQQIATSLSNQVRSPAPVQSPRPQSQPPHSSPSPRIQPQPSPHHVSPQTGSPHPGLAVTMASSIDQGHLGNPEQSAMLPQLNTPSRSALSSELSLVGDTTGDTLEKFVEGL
CREB-binding protein/Histone acetyltransferase p300 (Homo sapiens), sequence (Q09472 whole entry, looked up): as the sequence (Q09472 whole entry) above
CREB-binding protein/Histone acetyltransferase p300 (Homo sapiens), sequence (Q92793 whole entry, looked up): as the sequence (Q92793 whole entry) above

Turning to `CNC(=O)Nc1ccc2c(c1)CC[C@@]21OC(=O)N(CC(=O)N2Cc3ccccc3CC[C@H]2C)C1=O`, the EC50 in the series on A2780 is 2710 nM; in the series on OVCAR-3 [2], 865 nM. The IC50 in series [1] stood at 2.5 nM; at CREB-binding protein, 28 nM.

With `CNC(=O)Nc1ccc2c(c1)CC[C@@]21OC(=O)N(CC(=O)N2Cc3cnccc3CC[C@H]2C2CC2)C1=O`, the IC50 came out at 13 nM in series [1] and 41 nM on CREB-binding protein.

Regarding `CNC(=O)Nc1ccc2c(c1)CC[C@@]21OC(=O)N(CC(=O)N(Cc2ccc(F)cc2)[C@@H](C)C(F)(F)F)C1=O` [A-485], the EC50 in the series with OVCAR-3 [2] is 5440 nM.

As to `CNC(=O)Nc1ccc2c(c1)CC[C@@]21OC(=O)N(CC(=O)N2Cc3ccc(F)cc3CC[C@H]2C2CC2)C1=O`, the EC50 in the series with A2780 stood at 471 nM; in the series with OVCAR-3 [2], 90.4 nM. The CLH in [3] turned out to be 112 mL/min/g; in [4], 258 mL/min/g; in series [5] it was 150 mL/min/g. The IC50 in [1] was 0.95 nM; at CREB-binding protein, 8.1 nM.

On to `CNC(=O)Nc1ccc2c(c1)CC[C@@]21OC(=O)N(CC(=O)N2Cc3ncccc3CC[C@H]2C2CC2)C1=O`, for which the IC50 amounted to 8.6 nM in [1] and 30 nM at CREB-binding protein.

Turning to `CNC(=O)Nc1cc2c(cc1F)[C@@]1(CC2)OC(=O)N(CC(=O)N2Cc3ccc(F)cc3CC[C@H]2C2CC2)C1=O`, the results for the 50% effective concentration (EC50) with A2780 and in the series with OVCAR-3 [2] were 4470 nM and 4300 nM, respectively. For the same compound, the CLH came to 161 mL/min/g in [3], 94.4 mL/min/g in series [4] and 106 mL/min/g in series [5]. Besides, the values for the IC50 (in series [1]; at CREB-binding protein) were 1.7 nM and 8.2 nM, respectively.

Consider `CNC(=O)Nc1ccc2c(c1)OCC[C@@]21OC(=O)N(CC(=O)N2Cc3ccc(F)cc3CC[C@H]2C2CC2)C1=O`, for which the IC50 in [1] came out at 8.6 nM; on CREB-binding protein, 22 nM.

As to `CNC(=O)Nc1ccc2c(c1)CC[C@@]21OC(=O)N(CC(=O)N2Cc3cc(F)ccc3OC[C@H]2C2CC2)C1=O`, the values for the EC50 in the series with A2780 and with OVCAR-3 [2] were 678 nM and 153 nM, respectively. In addition, the IC50 in series [6] came to 0.51 nM; in [1], 0.49 nM; at CREB-binding protein it was 7.1 nM. In addition, the CLH came out at 34.8 mL/min/g in series [3], 66.5 mL/min/g in series [4] and 48 mL/min/g in [5]. The compound further displayed an AUClast in series [7] of 480 ng·h/mL. Also, in series [8], the inhibition entry was “inactive”. The outcome in the series with OVCAR-3 [9], in the series with SK-OV-3, in the series on OVCAR-3 [17] and in the series with TOV21G was Active. The compound further showed a Cmax in series [10] of 20.3 ng/mL. Also, the figures for the inhibition entry in series [11], in series [14] and in series [19] were “Dose-Dependent Effect”, “Dose-Dependent Effect” and 50%, respectively. The Activity entry in series [12] was “Toxic”; in series [15], “Toxic”; with HEK293, “Non-Toxic”; in the series with OVCAR-3 [18], 1703.74 mm3. This compound also gave a t1/2 in series [13] of 1.4 h. Further, in [16], the Tmax came to 1 h.

Regarding `CNC(=O)Nc1ccc2c(c1)COC[C@@]21OC(=O)N(CC(=O)N2Cc3cc(F)ccc3OC[C@H]2C2CC2)C1=O`, the half-maximal inhibitory concentration (IC50) in series [1] is 12 nM; at CREB-binding protein, 51 nM.

As to `CNC(=O)Nc1ccc2c(c1)CCC[C@@]21OC(=O)N(CC(=O)N2Cc3ccc(F)cc3CC[C@H]2C2CC2)C1=O`, the IC50 in series [1] was found to be 2.2 nM; at CREB-binding protein, 14 nM.

Consider `CNC(=O)Nc1ccc2c(c1)CCC[C@@]21OC(=O)N(CC(=O)N2Cc3cc(F)ccc3OC[C@H]2C2CC2)C1=O`, for which the values for the IC50 (in series [1]; at CREB-binding protein) were 11 nM and 69 nM, respectively.

As for `CNC(=O)Nc1ccc2c(c1)CC[C@@]21OC(=O)N(CC(=O)N2Cc3ccncc3CC[C@H]2C2CC2)C1=O`, the IC50 was determined as 9.8 nM in series [1] and 28 nM at CREB-binding protein.

Take `CNC(=O)Nc1ccc2c(c1)CC[C@@]21OC(=O)N(CC(=O)N2Cc3cc(F)c(F)cc3CC[C@H]2C2CC2)C1=O`: the 50% effective concentration (EC50) in the series with A2780 was 974 nM; in the series with OVCAR-3 [2] it was 164 nM. The values for the half-inhibitory concentration (IC50) (in series [1]; on CREB-binding protein) were 0.56 nM and 7 nM, respectively.

For `CNC(=O)Nc1ccc2c(c1)CC[C@@]21OC(=O)N(CC(=O)N2Cc3cccnc3CC[C@H]2C2CC2)C1=O`, the IC50 was 10 nM in series [1] and 44 nM at CREB-binding protein.

Regarding `CNC(=O)Nc1ccc2c(c1)CC[C@@]21OC(=O)N(CC(=O)N2Cc3sccc3OC[C@H]2C2CC2)C1=O`, the IC50 in series [1] was 4 nM; on CREB-binding protein it was 12 nM.

In the case of `CNC(=O)Nc1ccc2c(c1)CC[C@@]21OC(=O)N(CC(=O)N2Cc3sc(C)c(C)c3OC[C@H]2C(F)(F)F)C1=O`, the IC50 was found to be 430 nM in [1] and 680 nM on CREB-binding protein.

The values above are taken from ChEMBL document CHEMBL5032535, “Design, synthesis and biological evaluation of a novel spiro oxazolidinedione as potent p300/CBP HAT inhibitor for the treatment of ovarian cancer” (Bioorg Med Chem, 2021).
